In patent US20260001875A1, “AMINOPYRIMIDINYL DERIVATIVES FOR THE TREATMENT OF PARKINSON'S DISEASE” (UNIVERSITY OF DUNDEE, priority 2022, published 2026) one finds inhibition data, which are given here for 7 compounds.

Common to all, as to conditions: Mus musculus
The test system of assay [1] is Rab10 pThr73. As to the kind of experiment: Rab10 Thr73 dephosphorylation (immunoblot) in LRRK2^G2019S MEFs. It is filed as cell-based.
Assay [2] deals with Rab10 pThr73. The description is as above. It is filed as cell-based, mouse.
The subject of assay [3] is Rab10 pThr73. Nature of the assay: Rab10 Thr73 dephosphorylation (immunoblot) in WT MEFs. It is filed as cell-based, mouse. Summed up:
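Wild-type mouse embryonic fibroblasts in 6-well plates were treated with LRRK2 PROTACs, with two biological replicates per condition. Cells were washed in PBS and lysed on ice in buffer containing phosphatase and protease inhibitors plus 1% Triton X-100, then clarified at 15,000 g. Rab10 Thr73 phosphorylation was measured by quantitative immunoblotting of 15 to 20 μg protein on 4-12% Bis-Tris gels.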

Setting [4] is: 33 nM/4 h treatment, read-out: pRab10 inhibited in LRRK2^G2019S MEFs.
The mark [5] stands for this setting: 33 nM/24 h treatment, read-out: pRab10 inhibited in LRRK2^G2019S MEFs.
Where [6] appears, read: 1 μM/4 h treatment, read-out: pRab10 inhibited in LRRK2^G2019S MEFs.
The mark [7] stands for this setting: 1 μM/24 h treatment, read-out: pRab10 inhibited in LRRK2^G2019S MEFs.
Where [8] appears, read: 33 nM/4 h treatment, read-out: pRab10 inhibited in WT MEFs.
Where [9] appears, read: 33 nM/24 h treatment, read-out: pRab10 inhibited in WT MEFs.
Setting [10] is: 1 μM/4 h treatment, read-out: pRab10 inhibited in WT MEFs.
[11] abbreviates: 1 μM/24 h treatment, read-out: pRab10 inhibited in WT MEFs.

Each structure is given as a SMILES string.

With `CNc1nc(Nc2ccc(OCCOCCOCCOCCSC(C)(C)[C@@H](NC(=O)C3(F)CC3)C(=O)N3C[C@H](O)C[C@H]3C(=O)NCc3ccc(-c4scnc4C)cc3)cc2OC)ncc1Cl` [XL01145, (2S,4R)-1-((S)-1-(4-((5-chloro-4-(methylamino)pyrimidin-2-yl)amino)-3-methoxyphenoxy)-14-(1-fluorocyclopropane-1-carboxamido)-13,13-dimethyl-3,6,9-trioxa-12-thiapentadecan-15-oyl)-4-hydroxy-N-(4-(4-methylthiazol-5-yl)benzyl)pyrrolidine-2-carboxamide], the inhibition at 0.033 µM in the assay on Rab10 pThr73 [1] (setting [4]) was 0 to 70%; in the assay on Rab10 pThr73 [1] (setting [5]), 0 to 90%; in the assay with Rab10 pThr73 [3] (setting [8]), 0 to 40%; in the assay with Rab10 pThr73 [3] (setting [9]) it was 0 to 60%. Further, the inhibition at 1 µM is 20 to 100% with Rab10 pThr73 [2] (setting [6]), 10 to 100% in the assay on Rab10 pThr73 [2] (setting [7]), 10 to 95% in the assay on Rab10 pThr73 [3] (setting [10]) and 30 to 100% in the assay on Rab10 pThr73 [3] (setting [11]).
As to `CNc1nc(Nc2ccc(OCCOCCCSC(C)(C)[C@@H](NC(=O)C3(F)CC3)C(=O)N3C[C@H](O)C[C@H]3C(=O)NCc3ccc(-c4scnc4C)cc3)cc2OC)ncc1Cl` [XL01149, (2S,4R)-1-((S)-3-((3-(2-(4-((5-chloro-4-(methylamino)pyrimidin-2-yl)amino)-3-methoxyphenoxy)ethoxy)propyl)thio)-2-(1-fluorocyclopropane-1-carboxamido)-3-methylbutanoyl)-4-hydroxy-N-(4-(4-methylthiazol-5-yl)benzyl)pyrrolidine-2-carboxamide], the inhibition at 0.033 µM with Rab10 pThr73 [1] (setting [4]) is 0 to 70%; in the assay on Rab10 pThr73 [1] (setting [5]) it was 0 to 90%; in the assay on Rab10 pThr73 [3] (setting [8]) it was 0 to 40%; with Rab10 pThr73 [3] (setting [9]), 0 to 60%. Moreover, the inhibition at 1 µM fell in the range of 20 to 100% with Rab10 pThr73 [2] (setting [6]), 10 to 100% with Rab10 pThr73 [2] (setting [7]), 10 to 95% in the assay with Rab10 pThr73 [3] (setting [10]) and 30 to 100% with Rab10 pThr73 [3] (setting [11]).
Take `CNc1nc(Nc2ccc(OC[C@H]3CC[C@H](CSC(C)(C)C(NC(=O)C4(F)CC4)C(=O)N4C[C@H](O)C[C@H]4C(=O)NCc4ccc(-c5scnc5C)cc4)CC3)cc2OC)ncc1Cl` (stereo partly drawn) [XL01168, (2S,4R)-1-((S)-3-((((1R,4S)-4-((4-((5-chloro-4-(methylamino)pyrimidin-2-yl)amino)-3-methoxyphenoxy)methyl)cyclohexyl)methyl)thio)-2-(1-fluorocyclopropane-1-carboxamido)-3-methylbutanoyl)-4-hydroxy-N-(4-(4-methylthiazol-5-yl)benzyl)pyrrolidine-2-carboxamide]: the inhibition at 0.033 µM with Rab10 pThr73 [1] (setting [4]) was in the range of 0 to 70%; with Rab10 pThr73 [1] (setting [5]), 0 to 90%; with Rab10 pThr73 [3] (setting [8]) it was 0 to 40%; in the assay on Rab10 pThr73 [3] (setting [9]), 0 to 60%. The inhibition at 1 µM in the assay with Rab10 pThr73 [2] (setting [6]) was in the range of 20 to 100%; in the assay with Rab10 pThr73 [2] (setting [7]), 10 to 100%; with Rab10 pThr73 [3] (setting [10]), 10 to 95%; with Rab10 pThr73 [3] (setting [11]), 30 to 100%.
With `CNc1nc(Nc2ccc(C(=O)N3C[C@@H](C)N(C[C@H]4CC[C@H](CSC(C)(C)C(NC(=O)C5(F)CC5)C(=O)N5C[C@H](O)C[C@H]5C(=O)NCc5ccc(-c6scnc6C)cc5)CC4)[C@@H](C)C3)cc2OC)ncc1Cl` (some centres unmarked) [XL02031], the inhibition at 0.033 µM in the assay on Rab10 pThr73 [1] (setting [4]) was in the range of 0 to 90%; in the assay on Rab10 pThr73 [1] (setting [5]) it was 30 to 90%; with Rab10 pThr73 [3] (setting [8]), 0 to 70%; in the assay with Rab10 pThr73 [3] (setting [9]) it was 0 to 80%. Further, the inhibition at 1 µM in the assay on Rab10 pThr73 [2] (setting [6]) was 10 to 100%; in the assay with Rab10 pThr73 [2] (setting [7]), 80 to 100%; with Rab10 pThr73 [3] (setting [10]), 80 to 100%; in the assay on Rab10 pThr73 [3] (setting [11]), 80 to 100%.
Regarding `CNc1nc(Nc2ccc(C(=O)N3CCN(C[C@H]4CC[C@@H](CSC(C)(C)[C@H](NC(=O)C5(F)CC5)C(=O)N5C[C@H](O)CC5C(=O)NCc5ccc(-c6scnc6C)cc5F)CC4)CC3)cc2OC)ncc1Cl` (stereo partly drawn) [XL02058, (2S,4R)-1-((R)-3-((((1s,4S)-4-((4-(4-((5-chloro-4-(methylamino)pyrimidin-2-yl)amino)-3-methoxybenzoyl)piperazin-1-yl)methyl)cyclohexyl)methyl)thio)-2-(1-fluorocyclopropane-1-carboxamido)-3-methylbutanoyl)-N-(2-fluoro-4-(4-methylthiazol-5-yl)benzyl)-4-hydroxypyrrolidine-2-carboxamide], the inhibition at 0.033 µM in the assay with Rab10 pThr73 [1] (setting [4]) was in the range of 0 to 90%; in the assay with Rab10 pThr73 [1] (setting [5]) it was 30 to 90%; in the assay with Rab10 pThr73 [3] (setting [8]) it was 0 to 70%; with Rab10 pThr73 [3] (setting [9]) it was 0 to 80%. Also, the inhibition at 1 µM lay in the range of 10 to 100% with Rab10 pThr73 [2] (setting [6]), 80 to 100% in the assay with Rab10 pThr73 [2] (setting [7]), 80 to 100% in the assay on Rab10 pThr73 [3] (setting [10]) and 80 to 100% in the assay with Rab10 pThr73 [3] (setting [11]).
Consider `CNc1nc(Nc2ccc(C(=O)N3CCN(C[C@@H]4CCC[C@H](CSC(C)(C)[C@H](NC(=O)C5(F)CC5)C(=O)N5C[C@H](O)C[C@H]5C(=O)NCc5ccc(-c6scnc6C)cc5)C4)CC3)cc2OC)ncc1Cl` [XL02063, (2S,4R)-1-((R)-3-((((1S,3R)-3-((4-(4-((5-chloro-4-(methylamino)pyrimidin-2-yl)amino)-3-methoxybenzoyl)piperazin-1-yl)methyl)cyclohexyl)methyl)thio)-2-(1-fluorocyclopropane-1-carboxamido)-3-methylbutanoyl)-4-hydroxy-N-(4-(4-methylthiazol-5-yl)benzyl)pyrrolidine-2-carboxamide], for which the inhibition at 0.033 µM in the assay with Rab10 pThr73 [1] (setting [4]) is 0 to 90%; in the assay on Rab10 pThr73 [1] (setting [5]), 30 to 90%; in the assay with Rab10 pThr73 [3] (setting [8]), 0 to 70%; in the assay with Rab10 pThr73 [3] (setting [9]), 0 to 80%. Moreover, the inhibition at 1 µM in the assay on Rab10 pThr73 [2] (setting [6]) lay in the range of 10 to 100%; with Rab10 pThr73 [2] (setting [7]) it was 80 to 100%; with Rab10 pThr73 [3] (setting [10]), 80 to 100%; with Rab10 pThr73 [3] (setting [11]) it was 80 to 100%.
Turning to `CNc1nc(Nc2ccc(C(=O)N3CCC4(CCN(CCCSC(C)(C)[C@H](NC(=O)C5(F)CC5)C(=O)N5C[C@H](O)C[C@H]5C(=O)NCc5ccc(-c6scnc6C)cc5)CC4)CC3)cc2OC)ncc1Cl` [XL02067B, (2S,4R)-1-((R)-3-((3-(9-(4-((5-chloro-4-(methylamino)pyrimidin-2-yl)amino)-3-methoxybenzoyl)-3,9-diazaspiro[5.5]undecan-3-yl)propyl)thio)-2-(1-fluorocyclopropane-1-carboxamido)-3-methylbutanoyl)-4-hydroxy-N-(4-(4-methylthiazol-5-yl)benzyl)pyrrolidine-2-carboxamide], the inhibition at 0.033 µM was 0 to 90% with Rab10 pThr73 [1] (read-out: pRab10 inhibited in LRRK2^G2019S MEFs, 33 nM/4 h treatment); 30 to 90% in the assay with Rab10 pThr73 [1] (read-out: pRab10 inhibited in LRRK2^G2019S MEFs, 33 nM/24 h treatment); 0 to 70% in the assay on Rab10 pThr73 [3] (read-out: pRab10 inhibited in WT MEFs, 33 nM/4 h treatment); 0 to 80% in the assay on Rab10 pThr73 [3] (read-out: pRab10 inhibited in WT MEFs, 33 nM/24 h treatment). Moreover, the inhibition at 1 µM with Rab10 pThr73 [2] (read-out: pRab10 inhibited in LRRK2^G2019S MEFs, 1 μM/4 h treatment) was in the range of 10 to 100%; in the assay on Rab10 pThr73 [2] (read-out: pRab10 inhibited in LRRK2^G2019S MEFs, 1 μM/24 h treatment), 80 to 100%; with Rab10 pThr73 [3] (read-out: pRab10 inhibited in WT MEFs, 1 μM/4 h treatment) it was 80 to 100%; in the assay with Rab10 pThr73 [3] (read-out: pRab10 inhibited in WT MEFs, 1 μM/24 h treatment), 80 to 100%.
